Structures are written as SMILES.

For data set [1], the system named is Tyrosine-protein kinase BTK (Homo sapiens), Q06187 [R28H]. Nature of the data set: Inhibition of recombinant full length human BTK R28H mutant assessed as residual activity at 1 uM using LSNLYHQGKFLQTFCGSPLYRRR as substrate incubated for 40 mins in presence of [gamma-33ATP] by scintillation counting based radiometry assay relative to control.
For data set [2], the target named is Rhodopsin kinase GRK7 (Homo sapiens) (UniProt Q8WTQ7). Put plainly: Inhibition of recombinant full length human GRK7 assessed as residual activity at 1 uM using casein as substrate at 40 mins in presence of [gamma-33ATP] by scintillation counting based radiometry assay relative to control.
Chain of Rhodopsin kinase GRK7 (Homo sapiens) (Q8WTQ7 whole entry, the tested form may be a part): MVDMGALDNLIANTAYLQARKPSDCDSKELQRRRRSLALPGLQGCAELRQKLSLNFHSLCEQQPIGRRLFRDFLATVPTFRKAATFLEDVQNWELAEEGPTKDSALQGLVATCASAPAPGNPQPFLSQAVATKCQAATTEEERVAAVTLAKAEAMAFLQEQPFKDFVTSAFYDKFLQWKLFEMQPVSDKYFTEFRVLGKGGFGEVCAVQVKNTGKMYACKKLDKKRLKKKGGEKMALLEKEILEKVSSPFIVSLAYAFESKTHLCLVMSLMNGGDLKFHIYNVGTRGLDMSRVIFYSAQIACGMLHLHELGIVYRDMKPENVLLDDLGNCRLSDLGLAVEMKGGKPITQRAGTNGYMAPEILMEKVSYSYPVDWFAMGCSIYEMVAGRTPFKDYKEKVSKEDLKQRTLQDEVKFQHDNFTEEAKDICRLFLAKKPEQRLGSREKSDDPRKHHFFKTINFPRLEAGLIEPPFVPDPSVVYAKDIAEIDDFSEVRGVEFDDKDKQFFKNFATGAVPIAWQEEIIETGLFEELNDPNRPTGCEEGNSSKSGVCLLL
For another data set, the target named is GSK-3beta (H350L mutant) (Homo sapiens, UniProt P49841, H350L). Put plainly: Inhibition of human GSK-3beta H350L mutant (2 to end residues) assessed as residual activity at 1 uM using phospho GS2 peptide as substrate after 40 mins by [gamma-33ATP] radiometric assay relative to control. The conditions noted are these: human GSK-3beta H350L mutant enzyme (residues 2 to end), probe phospho GS2 peptide, read-out: Activity.

Data set [3] addresses Leukocyte tyrosine kinase receptor (Homo sapiens) (UniProt P29376). Nature of the data set: Inhibition of recombinant human LTK (450 to end residues) assessed as residual activity at 1 uM using GEEPLYWSFPAKKK as substrate after 40 mins in presence of [gamma-33ATP] by scintillation counting based radiometry assay relative to control.
In data set [4] the target is Hepatocyte growth factor receptor (Homo sapiens) (UniProt P08581). Put plainly: Inhibition of recombinant human MET A1209G/V1290L mutant (974 to end residues) assessed as residual activity at 1 uM using KKKGQEEEYVFIE as substrate incubated for 40 mins in presence of [gamma-33ATP by scintillation counting based radiometry assay relative to control.
Data set [5] concerns Hepatocyte growth factor receptor (Homo sapiens), P08581 [Y1230H]. Nature of the data set: Inhibition of recombinant human MET A1209G/V1290L/Y1248H mutant (974 to end residues) assessed as residual activity at 1 uM using KKKGQEEEYVFIE as substrate incubated for 40 mins in presence of [gamma-33ATP by scintillation counting based radiometry assay relative to control.
The target of data set [6] is Serine/threonine-protein kinase 3 (Homo sapiens) (UniProt Q13188). Put plainly: Inhibition of recombinant full-length human MST2 (2 to end residues) assessed as residual activity at 1 uM using myelin basic protein as substrate measured after 40 mins in presence of [gamma33P]ATP by scintillation counting method relative to control.
Chain of Serine/threonine-protein kinase 3 (Homo sapiens) (Q13188 whole entry): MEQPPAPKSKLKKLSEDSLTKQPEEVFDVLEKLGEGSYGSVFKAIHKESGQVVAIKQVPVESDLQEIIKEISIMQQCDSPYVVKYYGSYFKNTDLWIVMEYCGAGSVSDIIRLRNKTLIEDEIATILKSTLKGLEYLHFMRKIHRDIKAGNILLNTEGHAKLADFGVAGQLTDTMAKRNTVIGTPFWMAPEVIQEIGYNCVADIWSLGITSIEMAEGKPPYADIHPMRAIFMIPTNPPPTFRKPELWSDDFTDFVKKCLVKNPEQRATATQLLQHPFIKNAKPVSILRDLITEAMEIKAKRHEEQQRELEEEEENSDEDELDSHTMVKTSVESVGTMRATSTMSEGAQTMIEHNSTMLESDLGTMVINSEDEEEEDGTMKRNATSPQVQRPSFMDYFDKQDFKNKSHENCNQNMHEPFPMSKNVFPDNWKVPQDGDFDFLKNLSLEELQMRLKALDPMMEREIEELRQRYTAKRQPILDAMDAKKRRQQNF
The target of data set [7] is Serine/threonine-protein kinase Nek2 (Homo sapiens) (UniProt P51955). Put plainly: Inhibition of recombinant full-length human NEK2 assessed as residual activity at 1 uM using myelin basic protein as substrate measured after 40 mins in presence of [gamma33P]ATP by scintillation counting based radiometry assay relative to control.
Chain of Serine/threonine-protein kinase Nek2 (Homo sapiens) (P51955 whole entry): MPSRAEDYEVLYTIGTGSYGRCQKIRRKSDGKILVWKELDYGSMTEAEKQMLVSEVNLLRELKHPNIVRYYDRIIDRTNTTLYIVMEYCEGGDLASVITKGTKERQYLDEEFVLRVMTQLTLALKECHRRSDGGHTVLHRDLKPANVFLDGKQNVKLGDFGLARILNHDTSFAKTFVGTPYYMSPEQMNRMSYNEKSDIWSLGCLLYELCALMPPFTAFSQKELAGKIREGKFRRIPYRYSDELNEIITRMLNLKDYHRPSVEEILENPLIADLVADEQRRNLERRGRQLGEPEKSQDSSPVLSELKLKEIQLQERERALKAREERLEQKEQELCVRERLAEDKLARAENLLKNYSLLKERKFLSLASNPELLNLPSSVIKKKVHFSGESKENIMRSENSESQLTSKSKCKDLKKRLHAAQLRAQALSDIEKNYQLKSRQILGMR
Data set [8] concerns RAC-beta serine/threonine-protein kinase (Homo sapiens), P31751 [S474D]. Put plainly: Inhibition of recombinant human PKBbeta S474D mutant (120 to end residues) assessed as residual activity at 1 uM using GRPRTSSFAEGKK as substrate measured after 40 mins in presence of [gamma33P]ATP by scintillation counting method relative to control.
Chain of RAC-beta serine/threonine-protein kinase (Homo sapiens), P31751 [S474D] (P31751 whole entry S474D): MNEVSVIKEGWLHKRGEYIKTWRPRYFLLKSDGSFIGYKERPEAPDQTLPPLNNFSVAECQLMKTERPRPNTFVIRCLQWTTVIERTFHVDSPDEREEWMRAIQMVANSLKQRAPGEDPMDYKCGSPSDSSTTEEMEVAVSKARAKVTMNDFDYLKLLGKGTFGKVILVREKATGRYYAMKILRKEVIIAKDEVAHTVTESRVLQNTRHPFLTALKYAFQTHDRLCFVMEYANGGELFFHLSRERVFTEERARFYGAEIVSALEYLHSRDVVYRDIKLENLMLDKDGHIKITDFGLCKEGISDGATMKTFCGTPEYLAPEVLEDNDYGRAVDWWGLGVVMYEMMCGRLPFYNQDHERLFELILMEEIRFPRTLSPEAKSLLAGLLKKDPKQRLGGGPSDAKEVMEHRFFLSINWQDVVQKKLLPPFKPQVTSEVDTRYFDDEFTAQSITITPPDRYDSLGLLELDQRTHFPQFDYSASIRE
In data set [9] the target is Protein kinase C gamma type (Homo sapiens) (UniProt P05129). Put plainly: Inhibition of recombinant full-length human PKCgamma assessed as residual activity at 1 uM using histone H1 as substrate measured after 40 mins in presence of [gamma33P]ATP by scintillation counting method relative to control.
Data set [10] deals with Protein kinase C delta type (Homo sapiens) (UniProt Q05655). Put plainly: Inhibition of recombinant human PKCdelta (2 to end residues) assessed as residual activity at 1 uM using ERMRPRKRQGSVRRRV as substrate measured after 40 mins in presence of [gamma33P]ATP by scintillation counting method relative to control.
Chain of Protein kinase C delta type (Homo sapiens) (Q05655 whole entry, looked up): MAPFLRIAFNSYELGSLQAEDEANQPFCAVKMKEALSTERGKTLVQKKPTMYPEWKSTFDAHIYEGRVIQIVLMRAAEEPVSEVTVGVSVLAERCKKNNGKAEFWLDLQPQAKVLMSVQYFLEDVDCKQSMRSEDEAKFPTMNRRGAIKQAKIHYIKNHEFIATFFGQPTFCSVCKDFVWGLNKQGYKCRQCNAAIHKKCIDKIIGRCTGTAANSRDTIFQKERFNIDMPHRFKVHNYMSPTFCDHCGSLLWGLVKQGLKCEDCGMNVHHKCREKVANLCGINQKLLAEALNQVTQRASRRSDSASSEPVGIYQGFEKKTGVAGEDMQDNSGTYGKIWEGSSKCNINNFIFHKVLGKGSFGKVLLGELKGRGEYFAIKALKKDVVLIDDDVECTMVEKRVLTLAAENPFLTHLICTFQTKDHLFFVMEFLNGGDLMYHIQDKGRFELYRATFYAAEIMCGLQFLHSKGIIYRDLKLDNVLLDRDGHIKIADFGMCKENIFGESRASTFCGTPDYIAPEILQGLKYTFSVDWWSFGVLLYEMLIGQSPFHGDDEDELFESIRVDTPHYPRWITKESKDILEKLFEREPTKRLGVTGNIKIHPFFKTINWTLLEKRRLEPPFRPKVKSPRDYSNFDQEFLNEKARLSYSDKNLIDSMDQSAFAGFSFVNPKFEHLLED
The target in data set [11] is Interferon-induced, double-stranded RNA-activated protein kinase (Homo sapiens) (UniProt P19525). Nature of the data set: Inhibition of recombinant human PKR (252 to end residues) assessed as residual activity at 1 uM using RSRSRSRSRSRSRSR as substrate measured after 40 mins in presence of [gamma33P]ATP by scintillation counting method relative to control.
Chain of Interferon-induced, double-stranded RNA-activated protein kinase (Homo sapiens) (P19525 whole entry): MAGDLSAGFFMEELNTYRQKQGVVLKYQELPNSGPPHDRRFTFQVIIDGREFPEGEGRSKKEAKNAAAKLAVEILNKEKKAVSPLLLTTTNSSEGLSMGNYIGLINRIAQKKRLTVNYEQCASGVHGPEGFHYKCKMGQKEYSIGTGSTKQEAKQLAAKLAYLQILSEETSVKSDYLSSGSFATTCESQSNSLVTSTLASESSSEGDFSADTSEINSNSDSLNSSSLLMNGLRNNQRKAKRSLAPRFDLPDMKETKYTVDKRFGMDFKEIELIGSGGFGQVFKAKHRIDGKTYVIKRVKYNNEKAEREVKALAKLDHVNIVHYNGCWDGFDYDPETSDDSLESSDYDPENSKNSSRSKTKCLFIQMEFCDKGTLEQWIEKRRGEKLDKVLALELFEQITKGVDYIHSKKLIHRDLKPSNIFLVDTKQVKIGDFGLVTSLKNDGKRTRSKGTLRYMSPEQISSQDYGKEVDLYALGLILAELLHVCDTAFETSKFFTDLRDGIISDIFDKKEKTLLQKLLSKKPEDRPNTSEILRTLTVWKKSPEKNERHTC
Data set [12] has as its target cAMP-dependent protein kinase catalytic subunit PRKX (Homo sapiens) (UniProt P51817). Nature of the data set: Inhibition of recombinant human full length PrKX assessed as residual activity at 1 uM using RRRLSFAEPG as substrate measured after 40 mins in presence of [gamma33P]ATP by scintillation counting method relative to control.
The target in data set [13] is Tyrosine-protein kinase FRK (Homo sapiens) (UniProt P42685). Nature of the data set: Inhibition of recombinant human PTK5 (218 to end residues) assessed as residual activity at 1 uM using GGEEEEYFELVKKKK as substrate measured after 40 mins in presence of [gamma33P]ATP by scintillation counting method relative to control.
The target of data set [14] is Ribosomal protein S6 kinase alpha-3 (Homo sapiens) (UniProt P51812). Nature of the data set: Inhibition of recombinant human Rsk2 (2 to end residues) assessed as residual activity at 1 uM using KKKNRTLSVA as substrate measured after 40 mins in presence of [gamma33P]ATP by scintillation counting method relative to control.
Data set [15] addresses Serine/threonine-protein kinase PLK2 (Homo sapiens) (UniProt Q9NYY3). Put plainly: Inhibition of human Snk (65 to 409 residues) assessed as residual activity at 1 uM using casein as substrate measured after 40 mins in presence of [gamma33P]ATP by scintillation counting method relative to control.
The target of data set [16] is Testis-specific serine/threonine-protein kinase 3 (Homo sapiens) (UniProt Q96PN8). Nature of the data set: Inhibition of recombinant full-length human TSSK3 at 1 uM assessed as residual activity at 1 uM using AMARAASAAALARRR as substrate measured after 40 mins in presence of [gamma33P]ATP by scintillation counting method relative to control.
Chain of Testis-specific serine/threonine-protein kinase 3 (Homo sapiens) (Q96PN8 whole entry): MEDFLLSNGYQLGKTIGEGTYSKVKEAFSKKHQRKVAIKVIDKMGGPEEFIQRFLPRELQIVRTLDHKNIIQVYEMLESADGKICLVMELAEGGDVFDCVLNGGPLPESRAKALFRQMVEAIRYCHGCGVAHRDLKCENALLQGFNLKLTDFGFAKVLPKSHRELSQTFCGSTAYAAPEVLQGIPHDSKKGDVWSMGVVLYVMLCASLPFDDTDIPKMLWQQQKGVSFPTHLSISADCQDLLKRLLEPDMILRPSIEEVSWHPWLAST
Data set [17] addresses Serine/threonine-protein kinase ULK3 (Homo sapiens) (UniProt Q6PHR2). Put plainly: Inhibition of recombinant full-length human ULK3 at 1 uM assessed as residual activity at 1 uM using casein as substrate measured after 40 mins in presence of [gamma33P]ATP by scintillation counting method relative to control.
Data set [18] addresses Serine/threonine-protein kinase WNK3 (Homo sapiens) (UniProt Q9BYP7). Put plainly: Inhibition of human WNK3 (1 to 434 residues) assessed as residual activity at 1 uM using myelin basic protein as substrate measured after 40 mins in presence of [gamma33P]ATP by scintillation counting method relative to control.
The species named for a further data set is Homo sapiens. Nature of the data set: Inhibition of recombinant full-length human PI3K p120gamma R459Q mutant at 1 uM assessed as residual activity at 1 uM using phosphatidylinositol-4, 5-bisphosphate as substrate measured after 40 mins by fluorescence assay.
The test system of data set [19] is Casein kinase II subunit alpha' (CSNK2A2). Nature of the data set: Inhibition of recombinant full length human CK2alpha2 assessed as residual activity at 1 uM using RRRDDDSDDD as substrate incubated 40 mins in presence of [gamma-33ATP] by scintillation counting based radiometry assay relative to control.

Chain of Serine/threonine-protein kinase PLK2 (Homo sapiens) (Q9NYY3 whole entry, looked up, the tested form may be a part): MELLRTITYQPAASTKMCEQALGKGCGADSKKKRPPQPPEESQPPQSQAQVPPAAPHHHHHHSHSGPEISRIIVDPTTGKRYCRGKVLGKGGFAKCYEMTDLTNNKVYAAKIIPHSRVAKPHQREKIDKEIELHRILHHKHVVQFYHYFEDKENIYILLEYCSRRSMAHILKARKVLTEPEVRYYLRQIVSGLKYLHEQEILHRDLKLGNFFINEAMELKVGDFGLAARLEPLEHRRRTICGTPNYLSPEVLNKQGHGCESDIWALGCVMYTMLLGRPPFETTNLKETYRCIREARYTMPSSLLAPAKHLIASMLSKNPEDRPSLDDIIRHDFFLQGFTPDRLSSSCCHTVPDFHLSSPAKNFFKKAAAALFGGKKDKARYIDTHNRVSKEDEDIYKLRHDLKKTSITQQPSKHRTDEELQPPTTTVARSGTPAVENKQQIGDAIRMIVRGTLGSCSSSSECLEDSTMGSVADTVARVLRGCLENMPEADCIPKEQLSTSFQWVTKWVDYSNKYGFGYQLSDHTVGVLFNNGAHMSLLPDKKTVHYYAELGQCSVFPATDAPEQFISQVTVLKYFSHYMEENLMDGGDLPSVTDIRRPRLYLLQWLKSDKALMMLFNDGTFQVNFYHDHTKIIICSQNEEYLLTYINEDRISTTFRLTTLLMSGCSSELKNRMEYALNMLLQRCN
Chain of cAMP-dependent protein kinase catalytic subunit PRKX (Homo sapiens) (P51817 whole entry): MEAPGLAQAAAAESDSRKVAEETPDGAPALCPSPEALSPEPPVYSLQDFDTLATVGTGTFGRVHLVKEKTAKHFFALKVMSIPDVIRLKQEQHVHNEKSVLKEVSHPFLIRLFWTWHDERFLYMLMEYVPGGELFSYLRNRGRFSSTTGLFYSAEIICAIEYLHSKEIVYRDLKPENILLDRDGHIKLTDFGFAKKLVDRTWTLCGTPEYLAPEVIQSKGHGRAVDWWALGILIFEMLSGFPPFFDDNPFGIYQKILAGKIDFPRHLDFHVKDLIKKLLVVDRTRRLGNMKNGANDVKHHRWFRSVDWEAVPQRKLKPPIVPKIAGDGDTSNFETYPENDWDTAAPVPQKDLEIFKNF
Chain of Serine/threonine-protein kinase ULK3 (Homo sapiens) (Q6PHR2 whole entry, the tested form may be a part): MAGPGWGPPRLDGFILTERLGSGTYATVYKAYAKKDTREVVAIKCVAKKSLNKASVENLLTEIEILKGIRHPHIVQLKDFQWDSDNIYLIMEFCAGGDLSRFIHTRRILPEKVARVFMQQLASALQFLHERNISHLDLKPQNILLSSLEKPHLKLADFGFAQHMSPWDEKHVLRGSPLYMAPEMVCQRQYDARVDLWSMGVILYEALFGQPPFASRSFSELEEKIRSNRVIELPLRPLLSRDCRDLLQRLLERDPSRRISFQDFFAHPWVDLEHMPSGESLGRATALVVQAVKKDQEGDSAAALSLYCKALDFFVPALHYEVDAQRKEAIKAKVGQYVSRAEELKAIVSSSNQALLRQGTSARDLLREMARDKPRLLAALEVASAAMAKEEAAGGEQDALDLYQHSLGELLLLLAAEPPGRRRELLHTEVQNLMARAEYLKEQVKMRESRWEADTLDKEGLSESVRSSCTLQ

For the compound `C=CCOC(=O)c1cc(-c2ccc(/C=C3/NC(=S)NC3=O)o2)ccc1Cl`, the Activity in [1] was determined as 101%; in data set [2] it was 98%; in data set [3] it was 104%; in data set [4], 102%; in data set [5], 116%; in [6] it was 92%. Also, the Activity in data set [7] was 101%; in data set [8], 102%; in data set [9], 104%; in [10], 96%; in [11] it was 98%; in data set [12], 107%. Besides, the Activity in [13] turned out to be 96%; in data set [14], 112%; in data set [15], 91%; in [16] it was 99%; in [17], 99%; in data set [18], 102%. The Activity stood at 93% in the data set listed under Homo sapiens and 73% in data set [19]. The activity at 40 min, 1 µM at GSK-3beta (H350L mutant) came to 31%.

In the case of `N=C1NC(=O)/C(=C\c2ccc(-c3cccc([N+](=O)[O-])c3)o2)S1`, the Activity in data set [1] was 94%; in data set [2], 96%; in [3] it was 114%; in data set [4] it was 96%; in [5] it was 106%; in [6] it was 98%. Further, the Activity in data set [7] is 95%; in data set [8], 111%; in [9] it was 105%; in data set [10] it was 103%; in data set [11], 98%; in [12], 96%. For the same compound, the Activity came out at 92% in data set [13]; 85% in data set [14]; 92% in data set [15]; 106% in data set [16]; 100% in data set [17]; 99% in data set [18]. Besides, the Activity in the data set filed under Homo sapiens was determined as 93%; in data set [19] it was 52%. For the same compound, the activity at 40 min, 1 µM at GSK-3beta (H350L mutant) was 17%.

For the origin of these results see ChEMBL document CHEMBL4334438, “Discovery of novel glycogen synthase kinase-3α inhibitors: Structure-based virtual screening, preliminary SAR and biological evaluation for treatment of acute myeloid leukemia” (Eur J Med Chem, 2019).
